Each block holds one molecule with its values, some of them ahead of it.
Key:
[1] = test system: IL-1β, human peripheral blood mononuclear cells (PBMC); assay: PBMC cell assay: IL-1β assay with human PBMC or enriched adherent mononuclear cells, LPS-stimulated; type: cell-based
Description: IL-1β Assay with a Mixed Population of Human Peripheral Blood Mononuclear Cells (PBMC) or Enriched Adherent Mononuclear Cells
Processing of pre-IL-1β by ICE can be measured in cell culture using a variety of cell sources. Human PBMC obtained from healthy donors provides a mixed population of lymphocyte subtypes and mononuclear cells that produce a spectrum of interleukins and cytokines in response to many classes of physiological stimulators. Adherent mononuclear cells from PBMC provides an enriched source of normal monocytes for selective studies of cytokine production by activated cells.
An initial dilution series of test compound in DMSO or ethanol is prepared, with a subsequent dilution into RPMI-10% FBS media (containing 2 mM L-glutamine, 10 mM HEPES, 50 U and 50 ug/ml pen/strep) respectively to yield drugs at 4× the final test concentration containing 0.4% DMSO or 0.4% ethanol. The final concentration of DMSO is 0.1% for all drug dilutions. A concentration titration which brackets the apparent Ki for a test compound determined in an ICE inhibition assay is generally used for the primary compound screen.
Generally 5-6 compound dilutions are tested and the cellular component of the assay is performed in duplicate, with duplicate ELISA determinations on each cell culture supernatant.
PBMC Isolation and IL-1 Assay:
Buffy coat cells isolated from one pint human blood (yielding 40-45 ml final volume plasma plus cells) are diluted with media to 80 ml and LeukoPREP separation tubes (Becton Dickinson) are each overlaid with 10 ml of cell suspension. After 15 min centrifugation at 1500-1800×g, the plasma/media layer is aspirated and then the mononuclear cell layer is collected with a Pasteur pipette and transferred to a 15 ml conical centrifuge tube (Corning). Media is added to bring the volume to 15 ml, gently mix the cells by inversion and centrifuge at 300×g for 15 min. Resuspend the PBMC pellet in a small volume of media, count cells and adjust to 6×10^6 cells/ml.
For the cellular assay, 1.0 ml of the cell suspension is added to each well of a 24-well flat bottom tissue culture plate (Corning), 0.5 ml test compound dilution and 0.5 ml LPS solution (Sigma #L-3012; 20 ng/ml solution prepared in complete RPMI media; final LPS concentration 5 ng/ml). The 0.5 ml additions of test compound and LPS are usually sufficient to mix the contents of the wells. Three control mixtures are run per experiment, with either LPS alone, solvent vehicle control, and/or additional media to adjust the final culture volume to 2.0 ml. The cell cultures are incubated for 16-18 hr at 37° C. in the presence of 5% CO2.
At the end of the incubation period, cells are harvested and transferred to 15 ml conical centrifuge tubes. After centrifugation for 10 min at 200×g, supernatants are harvested and transferred to 1.5 ml Eppendorf tubes. It may be noted that the cell pellet may be utilized for a biochemical evaluation of pre-IL-1β and/or mature IL-1β content in cytosol extracts by western blotting or ELISA with pre-IL-1β specific antisera.
Isolation of Adherent Mononuclear Cells:
PBMC are isolated and prepared as described above. Media (1.0 ml) is first added to wells followed by 0.5 ml of the PBMC suspension. After a one hour incubation, plates are gently shaken and nonadherent cells aspirated from each well. Wells are then gently washed three times with 1.0 ml of media and final resuspended in 1.0 ml media. The enrichment for adherent cells generally yields 2.5−3.0×10^5 cells per well. The addition of test compounds, LPS, cell incubation conditions and processing of supernatants proceeds as described above.
We have used Quantikine kits (R&D Systems) for measurement of mature IL-1β. Assays are performed according to the manufacturer's directions. Mature IL-1β levels of about 1-3 ng/ml in both PBMC and adherent mononuclear cell positive controls are observed. […]

ICE = target: T1, ICE (Homo sapiens, UniProt P29466); assay: Enzyme assay with UV-visible substrate (visible ICE assay, Succinyl-Tyr-Val-Ala-Asp-pNitroanilide); type: biochemical; conditions: Table 5
T1 sequence (P29466 120-297 limits assumed): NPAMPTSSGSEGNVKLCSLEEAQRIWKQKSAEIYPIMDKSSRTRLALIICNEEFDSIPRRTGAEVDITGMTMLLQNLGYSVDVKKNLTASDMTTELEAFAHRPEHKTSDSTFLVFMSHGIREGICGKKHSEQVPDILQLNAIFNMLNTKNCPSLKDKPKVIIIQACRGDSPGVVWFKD
T1 sequence (P29466 317-404 limits assumed): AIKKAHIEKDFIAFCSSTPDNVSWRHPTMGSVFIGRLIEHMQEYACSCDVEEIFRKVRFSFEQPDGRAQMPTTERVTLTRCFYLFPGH
Protocol: 1. Enzyme Assay with Uv-Visible Substrate
This assay is run using an Succinyl-Tyr-Val-Ala-Asp-pNitroanilide substrate. Synthesis of analogous substrates is described by L. A. Reiter (Int. J. Peptide Protein Res. 12, 87-96 (1994)). The assay mixture contains:
The visible ICE assay is run in a 96-well microtiter plate. Buffer, ICE and DMSO (if inhibitor is present) are added to the wells in the order listed. The components are left to incubate at room temperature for 15 minutes starting at the time that all components are present in all wells. The microtiter plate reader is set to incubate at 37° C. After the 15 minute incubation, substrate is added directly to the wells and the reaction is monitored by following the release of the chromophore (pNA) at 405-603 nm at 37° C. for 20 minutes. A linear fit of the data is performed and the rate is calculated in mOD/min. DMSO is only present during experiments involving inhibitors, buffer is used to make up the volume to 100 μl in the other experiments.
For determination of enzyme inhibition constants (Ki) or the mode of inhibition (competitive, uncompetitive or noncompetitive), the rate data determined in the enzyme assays at varying inhibitor concentrations are computer-fit to standard enzyme kinetic equations (see I. H. Segel, Enzyme Kinetics, Wiley-Interscience, 1975).

[2] = Homo sapiens, PBMC, * = values obtained upon reassay
[3] = * = values obtained upon reassay

- Ki (ICE): 165 nM
SMILES: CC(=O)CC(=O)N1C[C@H](NC(=O)c2ccccc2)C(=O)N(CC(=O)N[C@H](C=O)CC(=O)O)c2ccccc21 [Compound 605g, (3S)-3-[(3S)-2-Oxo-3-benzoylamino-5-acetoacetyl-2,3,4,5-tetrahydro-1H-1,5-benzodiazepin-1-acetylamino]-4-oxo-butyric acid]
- IC50 [1, 2]: 22500 nM

- Ki (ICE): 27 nM
SMILES: CC(=O)N1C[C@H](NC(=O)c2ccccc2)C(=O)N(CC(=O)N[C@@H](CC(=O)O)C(=O)c2nc3cc(Cl)cc(Cl)c3o2)c2ccccc21 [Compound 609b, (3S)-3-[(3S)-2-Oxo-3-benzoylamino-5-acetyl-2,3,4,5-tetrahydro-1H-1,5-benzodiazepin-1-acetylamino]-4-(5,7-dichlorobenzoxazol-2-yl)-4-oxo-butyric acid]
- IC50 [1, 2]: > 20000 nM

- Ki (ICE): 114 nM
SMILES: O=C(O)C[C@H](NC(=O)CN1C(=O)[C@@H](NC(=O)CCc2ccccc2)CN(C(=O)CCc2ccccc2)c2ccccc21)C(=O)c1nc2cc(Cl)cc(Cl)c2o1 [Compound 609a, (3S)-3-[(3S)-2-Oxo-3-(3-phenylpropionylamino)-5-(3-phenylpropionyl)-2,3,4,5-tetrahydro-1H-1,5-benzodiazepin-1-acetylamino]-4-(5,7-dichlorobenzoxazol-2-yl)-4-oxo-butyric acid]
- IC50 [1, 2]: > 30000 nM

- Ki (ICE): 500 nM
SMILES: O=C[C@@H](CCC(=O)O)NC(=O)[C@@H]1CCCN2C(=O)CC[C@H](NC(=O)c3ccccc3)C(=O)N12 [Compound 238e, [4R,(1S,9S)]-4-[9-(Benzoylamino)-6,10-dioxo-1,2,3,4,7,8,9,10-octahydro-6H-pyridazino-[1,2-a][1,2]diazepine-1-carboxamido]-5-oxopentanoic acid]
- IC50 [1, 2]: 4250 nM

- Ki (ICE): 460 nM
SMILES: COC(=O)C(=O)N1C[C@H](NC(=O)c2ccccc2)C(=O)N(CC(=O)N[C@H](C=O)CC(=O)O)c2ccccc21 [Compound 605h, (3S)-3-[(3S)-2-oxo-3-benzoylamino-5-methyloxalkyl-2,3,4,5-tetrahydro-1H-1,5-benzodiazepin-1-acetylamino]-4-oxo-butyric acid]
- IC50 [1, 2]: > 25000 nM

The remaining lines, values behind:

SMILES: O=C[C@H](CC(=O)O)NC(=O)[C@@H]1CCCN2C(=O)CC[C@H](NC(=O)c3ccnc4ccccc34)C(=O)N12 [Compound 435]
- IC50 [1, 2]: 4400 nM
- Ki (ICE): 8 nM

SMILES: CS(=O)(=O)N[C@H]1CCC(=O)N2CCC[C@@H](C(=O)N[C@@H](CC(=O)O)C(=O)COC(=O)c3cccc(Oc4ccccc4)c3)N2C1=O [Compound 505d, [3S(1S,9S)]3-[6,10-Dioxo-9-(methanesulphonylamino)-1,2,3,4,7,8,9,10-octahydro-6H-pyridazino[1,2-a][1,2]diazepine-1-carboxamido]-4-oxo-5-(3-phenoxybenzoyloxy)pentanoic acid]
- IC50 ([1]; Table 17): > 20000 nM

SMILES: CC(=O)Nc1ccccc1C(=O)N[C@H]1CCC(=O)N2CCC[C@@H](C(=O)N[C@H](C=O)CC(=O)O)N2C1=O [Compound 430]
- IC50 [1, 2]: > 8000 nM
- Ki (ICE): 60 nM

SMILES: CC(=O)Nc1ccc(C(=O)N[C@H]2CCC(=O)N3CCC[C@@H](C(=O)N[C@H](C=O)CC(=O)O)N3C2=O)cc1NC(C)=O [Compound 480]
- IC50 [1, 2]: 2300 nM
- Ki (ICE): 25 nM

SMILES: CC(=O)N[C@H]1CCC(=O)N2CCC[C@@H](C(=O)N[C@H](C=O)CC(=O)O)N2C1=O [Compound 214c, [3S(1S,9S)]3-(9-Acetylamino-6,10-dioxo-1,2,3,4,7,8,9,10-octahydro-6H-pyridazino-[1,2-a][1,2]diazepine-1-carboxamido)-4-oxobutanoic acid]
- IC50 [1, 2]: 5000 nM
- Ki (ICE): 1200 nM

SMILES: O=C[C@H](CC(=O)O)NC(=O)[C@@H]1CCCN2C(=O)CC[C@H](NC(=O)c3ccc(F)c(Cl)c3)C(=O)N12 [Compound 459]
- IC50 [1, 2]: 1800 nM
- Ki (ICE): 5 nM

SMILES: O=C[C@H](CC(=O)O)NC(=O)[C@@H]1CCCN2C(=O)CC[C@H](NC(=O)C3CCCCC3)C(=O)N12 [Compound 426]
- IC50 [1, 3]: 2500 nM
- IC50 [1, 2]: 4500 nM
- Ki (ICE): 90 nM

SMILES: CNC(=O)N[C@H]1CCC(=O)N2CCC[C@@H](C(=O)N[C@H](C=O)CC(=O)O)N2C1=O [Compound 420]
- IC50 [1, 3]: > 8000 nM
- IC50 [1, 2]: 8000 nM
- Ki (ICE): 1200 nM

SMILES: CS(=O)(=O)N[C@H]1CCC(=O)N2CCC[C@@H](C(=O)N[C@@H](CC(=O)O)C(=O)c3ncc(-c4c(Cl)cccc4Cl)o3)N2C1=O [Compound 220b, [3S(1S,9S)]-4-[5-(2,6-Dichlorophenyl)oxazol-2-yl]-3-(6,10-dioxo-9-methylsulphonylamino-1,2,3,4,7,8,9,10-octahydro-6H-pyridazino[1,2-a][1,2]diazepine-1-carboxamido)-4-oxobutanoic acid]
- IC50 [1, 2]: 2120 nM
- Ki (ICE): 600 nM

SMILES: O=C[C@H](CC(=O)O)NC(=O)[C@@H]1CCCN2C(=O)CC[C@H](NC(=O)c3ccc(CO)cc3)C(=O)N12 [Compound 479]
- IC50 [1, 2]: 900 nM
- Ki (ICE): 15 nM

SMILES: O=C[C@H](CC(=O)O)NC(=O)[C@@H]1CCCN2C(=O)CC[C@H](NC(=O)c3ccc(F)c(F)c3)C(=O)N12 [Compound 458]
- IC50 [1, 2]: 2900 nM
- Ki (ICE): 20 nM

SMILES: CS(=O)(=O)N[C@H]1CCC(=O)N2CCC[C@@H](C(=O)N[C@@H](CC(=O)O)C(=O)COc3nc4ccccn4c(=O)c3Cl)N2C1=O [Compound 505f, [3S(1S,9S)]5-(3-Chloro-2-oxy-4H-pyrido[1,2-a]pyrimidin-4-one)-3-[6,10-dioxo-9-(methylsulphonyl)amino-1,2,3,4,7,8,9,10-octahydro-6H-pyridazino[1,2-a][1,2]diazepine-1-carboxamido]-4-oxopentanoic acid]
- IC50 ([1]; Table 17): 550 nM

SMILES: CS(=O)(=O)N[C@H]1CCC(=O)N2CCC[C@@H](C(=O)N[C@@H](CC(=O)O)C(=O)CSc3nnnn3-c3ccccc3)N2C1=O [Compound 280b, [3S(1S,9S)]3-(6,10-Dioxo-9-methanesulphonamido-1,2,3,4,7,8,9,10-octahydro-6H-pyridazino[1,2-a][1,2]diazepine-1-carboxamido)-4-oxo-5(1-phenyl-1H-tetrazole-5-thio)pentanoic acid]
- IC50 ([1]; Table 17): 13000 nM

SMILES: CS(=O)(=O)N[C@H]1CCC(=O)N2CCC[C@@H](C(=O)N[C@@H](CC(=O)O)C(=O)COC(=O)c3ccccc3Oc3ccccc3)N2C1=O [Compound 505c, [3S(1S,9S)]3-[6,10-Dioxo-9-(methanesulphonylamino)-1,2,3,4,7,8,9,10-octahydro-6H-pyridazino[1,2-a][1,2]diazepine-1-carboxamido]-4-oxo-5-(2-phenoxybenzoyloxy)pentanoic acid]
- IC50 ([1]; Table 17): 1500 nM
